Measurements taken from patent US20220211678A1, “USES OF (+)-A-DIHYDROTETRABENAZINE IN METHODS OF TREATING MOVEMENT DISORDER” (ADEPTIO PHARMACEUTICALS LIMITED, priority 2017, published 2022).
Where two headings read alike, the source gives them in different places.

Legend:
[1] = oral administration of tetrabenazine, four patients affected by tardive dyskinesia; cited from earlier work
[2] = oral administration of tetrabenazine, patients treated for involuntary movement disorders; cited from earlier work
[3] = test system: Tardive Dyskinesia sufferers; conditions: 80 mg/day; cited from earlier work
[4] = test system: patients suffering from tardive dyskinesia; conditions: cited from earlier work
amphetamine-induced rats = assay: Amphetamine-induced locomotor activity and stereotypic behaviour, open field arena (Example 2, Studies 1, 2, 4); type: in vivo, rat; conditions: for normalised total stereotypic behaviour, compared to vehicle-amphetamine group / total distance travelled, compared to vehicle-amphetamine group: amphetamine at t=30 min; for locomotor activity compared to the vehicle-amphetamine group (conclusion) / stereotypic behaviour compared to the vehicle-amphetamine group (conclusion): risperidone 1 mg/kg
From the text: Dopaminergic models for Tourette's syndrome use systemic or focal administration of dopamine agonists such as amphetamine. After injection with amphetamine, a test animal expresses stereotypic behaviour. In particular, involvement of a dopaminergic system implicated in Tourette's syndrome wild type mice and rats can be stimulated with amphetamine and the resulting hyperactivity and stereotypies can be reversed with dopamine antagonists such as risperidone and haloperidol (Tourette's syndrome—Animal Models for Screening, Charles River Discovery Research Services, Finland).
(§1) All animal experiments were carried out according to the National Institute of Health (NIH) guidelines for the care and use of laboratory animals, and approved by the National Animal Experiment Board, Finland. Male CD (Charles River Laboratories, Germany) at weight range of 200-250 g (165-200 g upon arrival) were used for the experiments. Animals were housed at a standard temperature (22±1° C.) and in a light-controlled environment (lights on from 7 am to 8 pm) with ad libitum access to food and water.
(§2) Locomotor activity of the rats was tested in open field arena. The open field test was performed during the rat light cycle and under a normal lighting evenly distributed to the test chambers. The paths of the rats were recorded by activity monitor (Med. Associates Inc.).
(§3) Dosing the vehicle, vehicle-amphetamine, (+)-α-DHTBZ or risperidone was done prior to LMA test. The rats were placed in the centre of the arena, and the path was recorded for 60 minutes.
(§4) Animals were grouped as follows: • Group 1: 10 rats treated with Vehicle (t=0 min) and Vehicle (t=30 min) • Group 2: 10 rats treated with Vehicle (t=0 min) and Amphetamine (t=30 min) • Group 3: 10 rats treated with (+)-α-DHTBZ 0.5 mg/kg (t=0 min) and Amphetamine (t=30 min) • Group 4: 10 rats treated with (+)-α-DHTBZ 1 mg/kg (t=0 min) and Amphetamine (t=30 min) • Group 5: 10 rats treated with (+)-α-DHTBZ 1.5 mg/kg (t=0 min) and Amphetamine (t=30 min) • Group 6: 10 rats treated with (+)-α-DHTBZ 2 mg/kg (t=0 min) and Amphetamine (t=30 min) • Group 7: 10 rats treated with risperidone 1 mg/kg (t=0 min) and Amphetamine (t=30 min)
Rats dosed with either vehicle, (+)-α-DHTBZ 0.5 mg/kg, (+)-α-DHTBZ 1 mg/kg, (+)-α-DHTBZ 1.5 mg/kg, (+)-α-DHTBZ 2 mg/kg or Risperidone 1 mg/kg were subjected to LMA testing first for 30 min and then for 60 minutes after vehicle or amphetamine challenge. Resulting locomotor activity was evaluated in 3 min bins and as a total over the testing period.
Rats dosed with either vehicle, (+)-α-DHTBZ 0.5 mg/kg, (+)-α-DHTBZ 1 mg/kg, (+)-α-DHTBZ 1.5 mg/kg, (+)-α-DHTBZ 2 mg/kg or Risperidone 1 mg/kg were subjected to LMA testing first for 30 min and then for 60 minutes after vehicle or amphetamine challenge. Resulting stereotypic activity was evaluated in 3 min bins and as a total over the testing period.
Animals were grouped as follows: • Group 1: 10 rats treated with Vehicle (t=0 min) and Vehicle (t=30 min) • Group 2: 10 rats treated with Vehicle (t=0 min) and Amphetamine (t=30 min) • Group 3: 10 rats treated with (+)-α-DHTBZ 0.1 mg/kg (t=0 min) and Amphetamine (t=30 min) • Group 4: 10 rats treated with (+)-α-DHTBZ 0.25 mg/kg (t=0 min) and Amphetamine (t=30 min) • Group 5: 10 rats treated with risperidone 1 mg/kg (t=0 min) and Amphetamine (t=30 min)
as §4, with “(+)-α-DHTBZ 1” for “(+)-α-DHTBZ 0.5”, “(+)-α-DHTBZ 1.5” for “(+)-α-DHTBZ 1”, “with Valbenazine 1” for “with (+)-α-DHTBZ 1.5”, “with Valbenazine 1.5” for “with (+)-α-DHTBZ 2”

[5] = test system: non-amphetamine induced rats; assay: Locomotor activity and stereotypic behaviour in non-amphetamine induced rats, open field arena (Example 2, Study 3); type: in vivo, rat; conditions: Study 3, non-induced rats; (+)-α-DHTBZ 2.5 mg/kg or 5 mg/kg, risperidone 1 mg/kg
Description: as §1, §2, §3
Animals were grouped as follows: • Group 1: 10 rats treated with Vehicle • Group 2: 10 rats treated with (+)-α-DHTBZ 2.5 mg/kg • Group 3: 10 rats treated with (+)-α-DHTBZ 5 mg/kg • Group 4: 10 rats treated with risperidone 1 mg/kg

[6] = rats, administration of tetrabenazine or dihydrotetrabenazine; stereochemistry not disclosed; cited from earlier work
[7] = Study 1, (+)-α-DHTBZ at all the tested doses (0.5, 1, 1.5, 2 mg/kg)

## COc1cc2c(cc1OC)C1CC(=O)C(CC(C)C)CN1CC2 (stereo not drawn) [tetrabenazine, 1,3,4,6,7,11b-hexahydro-9,10-dimethoxy-3-(2-methylpropyl)-2H-benzo(a)quinolizin-2-one]
[1]
  plasma concentrations: low plasma concentrations
[2]
  plasma concentrations: very low plasma concentrations

## COc1cc2c(cc1OC)[C@H]1C[C@@H](OC(=O)[C@@H](N)C(C)C)[C@H](CC(C)C)CN1CC2 [Valbenazine, reference compound]
[3]
  Abnormal Involuntary Movement Score: significant improvement
[4]; 50 mg/day
  symptoms scored with the abnormal involuntary movement scale (AIMS): did not show any significant signs of improvement
[4]; 100 mg/day
  symptoms scored with the abnormal involuntary movement scale (AIMS): some reduction of symptoms
amphetamine-induced rats; Study 4, 1 mg/kg
  normalised total stereotypic behaviour, compared to vehicle-amphetamine group: significantly different
  total distance travelled, compared to vehicle-amphetamine group: significantly different
amphetamine-induced rats; Study 4, 1.5 mg/kg
  normalised total stereotypic behaviour, compared to vehicle-amphetamine group: significantly different
  total distance travelled, compared to vehicle-amphetamine group: significantly different

## Cc1nc2n(c(=O)c1CCN1CCC(c3noc4cc(F)ccc34)CC1)CCCC2 [risperidone, reference compound]
amphetamine-induced rats; Study 1, 1 mg/kg
  normalised total stereotypic behaviour, compared to vehicle-amphetamine group: significantly different
amphetamine-induced rats; [7]
  locomotor activity compared to the vehicle-amphetamine group (conclusion): lower locomotor activity
  stereotypic behaviour compared to the vehicle-amphetamine group (conclusion): reduced stereotypic behaviour
amphetamine-induced rats; Study 2, 1 mg/kg
  normalised total stereotypic behaviour, compared to vehicle-amphetamine group: significantly different
amphetamine-induced rats; Study 2, (+)-α-DHTBZ at 0.25 mg/kg
  locomotor activity compared to the vehicle-amphetamine group (conclusion): lower locomotor activity
amphetamine-induced rats; Study 2, (+)-α-DHTBZ at both the tested doses (0.1, 0.25 mg/kg)
  stereotypic behaviour compared to the vehicle-amphetamine group (conclusion): reduced stereotypic behaviour
amphetamine-induced rats; Study 4, 1 mg/kg
  normalised total stereotypic behaviour, compared to vehicle-amphetamine group: significantly different
  total distance travelled, compared to vehicle-amphetamine group: significantly different
[5]
  total movement compared to rats treated with the vehicle: reduced total movement
  total stereotypic behaviour compared to rats treated with the vehicle: reduced total stereotypic behaviour

## COc1cc2c(cc1OC)C1CC(O)C(CC(C)C)CN1CC2 (stereo not drawn) [dihydrotetrabenazine, 2-hydroxy-3-(2-methylpropyl)-1,3,4,6,7,11b-hexahydro-9,10-dimethoxy-benzo(a)quinolizine]
[1]
  plasma concentrations: relatively high concentrations
[6]
  crossing of the blood-brain barrier: able to cross the blood-brain barrier
